Measured values reported in patent US20200078307A1, “POROUS SILICA PARTICLES FOR USE IN A COMPRESSED PHARMACEUTICAL DOSAGE FORM” (Nanologica AB, priority 2018, published 2020).
Values after ≈ are worked out from the molar mass of the structure shown. Read-outs that look alike come from different tables or passages of the source.

How the values were obtained:
[1] = Release kinetics of melatonin, USP Apparatus 2 dissolution testing; format: physicochemical; details: after 20 minutes; 500 ml buffer pH 6.8, 50 rpm, 37° C., 5 mg melatonin
Procedure: The release kinetics of melatonin was monitored using a USP Apparatus 2 dissolution testing system. The release was performed in 500 ml buffer at pH 6.8 (reflecting the pH in the oral cavity, typically in the range of pH 6.7 to 7.3) at 50 rpm stirring rate and 37° C. The dose in the dissolution tests was equivalent to 5 mg of melatonin. Melatonin was bought from PureBulk, Inc. USA. The dosage form with melatonin was compared to reference product from CVS Health, USA using the technology mentioned in U.S. Pat. No. 9,381,190 Other ingredients in the formulation include Microcrystalline cellulose (MCC) and Low-Substituted Hydroxypropyl Cellulose (L-HPC) Mannitol and magnesium stearate.

[2] = HPLC stability of melatonin during loading and storage; format: physicochemical; details: during loading and after storage at 4° C.
[3] = cited from earlier work

Compound	dissolution (melatonin released) [1]	stability (HPLC) [2]	solubility ([3]; in buffer at pH 6.8)	solubility ([3]; in water)
COc1ccc2[nH]cc(CCNC(C)=O)c2c1 [melatonin]	93%	no degradation		
CCN(CC)CCNC(=O)c1cc(Cl)c(N)cc1OC [metoclopramide]			10000 µg/mL (≈ 33.4 mM)	> 6000 µg/mL
